Data published in PubChem BioAssay AID2060910 (Molecular Pharmacology Branch, DTP, NCI, 2025).

Test system: 242566-281-R-J2-PDC complex spheroid viability
Experiment: Anticancer human tumor 242566-281-R-J2-PDC patient-derived pancreatic carcinoma cell line growth inhibition [RAS]
Details: for IC50: curve of first compound; for viability, T/C: stronger effect = lower value
In short: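 Tumour cells grown as complex spheroids with HUVEC endothelial cells and mesenchymal stem cells, treated with RAS pathway inhibitor combinations. Each agent spans half-log steps from near clinical Cmax, or 10 microM where Cmax is unknown.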

[1] = second compound 0.000949 µM, first compound 0.00316 µM
[2] = second compound 0.000949 µM, first compound 0.01 µM
[3] = second compound 0.000949 µM, first compound 0.0316 µM
[4] = second compound 0.000949 µM, first compound 0.1 µM
[5] = second compound 0.000949 µM, first compound 0.316 µM
[6] = second compound 0.000949 µM, first compound 1 µM
[7] = second compound 0.003 µM, first compound 0.00316 µM
[8] = second compound 0.003 µM, first compound 0.01 µM
[9] = second compound 0.003 µM, first compound 0.0316 µM
[10] = second compound 0.003 µM, first compound 0.1 µM
[11] = second compound 0.003 µM, first compound 0.316 µM
[12] = second compound 0.003 µM, first compound 1 µM
[13] = second compound 0.00949 µM, first compound 0.00316 µM
[14] = second compound 0.00949 µM, first compound 0.01 µM
[15] = second compound 0.00949 µM, first compound 0.0316 µM
[16] = second compound 0.00949 µM, first compound 0.1 µM
[17] = second compound 0.00949 µM, first compound 0.316 µM
[18] = second compound 0.00949 µM, first compound 1 µM
[19] = second compound 0.03 µM, first compound 0.00316 µM
[20] = second compound 0.03 µM, first compound 0.01 µM
[21] = second compound 0.03 µM, first compound 0.0316 µM
[22] = second compound 0.03 µM, first compound 0.1 µM
[23] = second compound 0.03 µM, first compound 0.316 µM
[24] = second compound 0.03 µM, first compound 1 µM
[25] = second compound 0.0949 µM, first compound 0.00316 µM
[26] = second compound 0.0949 µM, first compound 0.01 µM
[27] = second compound 0.0949 µM, first compound 0.0316 µM
[28] = second compound 0.0949 µM, first compound 0.1 µM
[29] = second compound 0.0949 µM, first compound 0.316 µM
[30] = second compound 0.0949 µM, first compound 1 µM
[31] = second compound 0.3 µM, first compound 0.00316 µM
[32] = second compound 0.3 µM, first compound 0.01 µM
[33] = second compound 0.3 µM, first compound 0.0316 µM
[34] = second compound 0.3 µM, first compound 0.1 µM
[35] = second compound 0.3 µM, first compound 0.316 µM
[36] = second compound 0.3 µM, first compound 1 µM
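Further: spheroids exposed to compound for 7 days before readout.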
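Wherever viability, T/C is given: 100% = DMSO vehicle control wells.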

For C=CC(=O)Nc1cc(Nc2nccc(-c3cn(C)c4ccccc34)n2)c(OC)cc1N(C)CCN(C)C + CCn1c(-c2cc(N3CCN(C)CC3)cnc2C(C)OC)c2c3cc(ccc31)-c1csc(n1)CC(NC(=O)C1CC1C)C(=O)N1CCCC(N1)C(=O)OCC(C)(C)C2, the IC50 (second compound 0.000949 µM) was 323 nM, the IC50 (second compound 0.003 µM) was 71.6 nM and the IC50 (second compound 0.00949 µM) was < 3.16 nM. The IC50 (second compound 0.03 µM) was < 3.16 nM, the IC50 (second compound 0.0949 µM) was < 3.16 nM and the IC50 (second compound 0.3 µM) was < 3.16 nM. For the same molecule, the viability, T/C [1] was 90.9%, the viability, T/C [2] was 90% and the viability, T/C [3] was 61.8%. For the same molecule, the viability, T/C [4] was 75.8%, the viability, T/C [5] was 51.8% and the viability, T/C [6] was 25.3%. It also gave a viability, T/C [7] of 76%, a viability, T/C [8] of 61.4% and a viability, T/C [9] of 54.9%. For the same molecule, the viability, T/C [10] was 52.2%, the viability, T/C [11] was 35.2% and the viability, T/C [12] was 19%. For the same molecule, the viability, T/C [13] was 48.4%, the viability, T/C [14] was 40.9% and the viability, T/C [15] was 41.2%. For the same molecule, the viability, T/C [16] was 30.7%, the viability, T/C [17] was 21.2% and the viability, T/C [18] was 15.3%. The viability, T/C [19] was 31.3%, the viability, T/C [20] was 30.7% and the viability, T/C [21] was 24%. For the same molecule, the viability, T/C [22] was 22%, the viability, T/C [23] was 14.8% and the viability, T/C [24] was 16.7%. The viability, T/C [25] was 21.2%, the viability, T/C [26] was 20.6% and the viability, T/C [27] was 20.1%. It also gave a viability, T/C [28] of 18.1%, a viability, T/C [29] of 13% and a viability, T/C [30] of 15.9%. For the same molecule, the viability, T/C [31] was 18.6%, the viability, T/C [32] was 18.2% and the viability, T/C [33] was 15.7%. It also gave a viability, T/C [34] of 14%, a viability, T/C [35] of 14.6% and a viability, T/C [36] of 14.9%.

With O=C(c1ccc(F)c(F)c1Nc1ccc(I)cc1F)N1CC(O)([C@@H]2CCCCN2)C1 + CCn1c(-c2cc(N3CCN(C)CC3)cnc2C(C)OC)c2c3cc(ccc31)-c1csc(n1)CC(NC(=O)C1CC1C)C(=O)N1CCCC(N1)C(=O)OCC(C)(C)C2 the IC50 (second compound 0.000949 µM) was 35.4 nM, the IC50 (second compound 0.003 µM) was 12.2 nM and the IC50 (second compound 0.00949 µM) was < 3.16 nM. The IC50 (second compound 0.03 µM) was < 3.16 nM, the IC50 (second compound 0.0949 µM) was < 3.16 nM and the IC50 (second compound 0.3 µM) was < 3.16 nM. The viability, T/C [1] was 89.8%, the viability, T/C [2] was 71.1% and the viability, T/C [3] was 44.3%. For the same molecule, the viability, T/C [4] was 42.3%, the viability, T/C [5] was 29% and the viability, T/C [6] was 16.6%. The viability, T/C [7] was 72.4%, the viability, T/C [8] was 47.5% and the viability, T/C [9] was 39.8%. For the same molecule, the viability, T/C [10] was 32.4%, the viability, T/C [11] was 23.1% and the viability, T/C [12] was 15.4%. It also gave a viability, T/C [13] of 39.9%, a viability, T/C [14] of 30.8% and a viability, T/C [15] of 30.6%. The viability, T/C [16] was 21.9%, the viability, T/C [17] was 15.2% and the viability, T/C [18] was 16.2%. For the same molecule, the viability, T/C [19] was 24.9%, the viability, T/C [20] was 21.4% and the viability, T/C [21] was 19.8%. For the same molecule, the viability, T/C [22] was 18%, the viability, T/C [23] was 14.5% and the viability, T/C [24] was 14%. It also gave a viability, T/C [25] of 21.9%, a viability, T/C [26] of 17.8% and a viability, T/C [27] of 17.6%. The viability, T/C [28] was 14.1%, the viability, T/C [29] was 11.2% and the viability, T/C [30] was 12.3%. It also gave a viability, T/C [31] of 17.4%, a viability, T/C [32] of 16.4% and a viability, T/C [33] of 13.3%. The viability, T/C [34] was 14.1%, the viability, T/C [35] was 10.9% and the viability, T/C [36] was 11.3%.
